{
  "source": "ChEMBL document CHEMBL1128197",
  "about": "(J Med Chem, 1995)",
  "note": "pKd, pKi: −log10 of the molar value.",
  "data": [
    {"biological_target": "Translocator protein (Rattus norvegicus, UniProt P16257)", "sequence (P16257 whole entry, looked up)": "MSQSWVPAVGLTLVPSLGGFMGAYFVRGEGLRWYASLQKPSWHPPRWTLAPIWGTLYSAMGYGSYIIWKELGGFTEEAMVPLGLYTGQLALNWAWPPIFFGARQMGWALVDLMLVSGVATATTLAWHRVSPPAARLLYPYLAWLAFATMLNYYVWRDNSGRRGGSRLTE", "test": "Binding affinity constant for peripheral (mitochondrial) Benzodiazepine receptor", "values": [
      {"smiles": "CC(=O)OC1=C(c2ccc(Cl)cc2)Sc2ccccc2-n2cccc21", "pKi": 7.52},
      {"smiles": "COC1=C(c2ccccc2)Sc2ccccc2-n2cccc21", "pKi": 5.15},
      {"smiles": "COc1ccc(C2=C(OC(=O)c3cccnc3)c3cccn3-c3ccccc3S2)cc1", "pKi": "< 8.00"},
      {"smiles": "COc1ccc(C2=C(OS(C)(=O)=O)c3cccn3-c3ccccc3S2)cc1", "pKi": 7.02},
      {"smiles": "CN(C)C(=O)OC1=C(c2ccccc2)Sc2ccccc2-n2cccc21", "pKi": 8.05},
      {"smiles": "COc1ccc(C2=C(OC(=O)c3cc(OC)c(OC)c(OC)c3)c3cccn3-c3cc(Cl)ccc3S2)cc1", "pKi": "< 8.00"},
      {"smiles": "C1=C(c2ccccc2)Sc2ccccc2-n2cccc21", "pKi": 5.50},
      {"smiles": "CN1CCN=C(c2ccccc2)c2cc(Cl)ccc21", "note": "[MEDAZEPAM]", "pKd": "< 8.00"}
    ]}
  ]
}
